Where “and” joins values, the source holds several entries; their conditions need not be identical. Identical values can stand only once.
Experiment: mn = molality of the nth substance listed, in mol/kg
Details: 81.5 kPa, Liquid; for mass density: Vibrating tube method; for viscosity: Capillary tube (Ostwald / Ubbelohde) method

CC(C)[C@H](N)C(=O)O [L-valine] + O
mass density [kg/m3]
Details | m1 = 0.1004 | m1 = 0.1489 | m1 = 0.1996 | m1 = 0.2497 | m1 = 0.3001 | m1 = 0.3488 | m1 = 0.3995 | m1 = 0.4501 | m1 = 0.4989
303.15 K | 998.27 | 999.57 | 1000.84 | 1002.1 | 1003.33 | 1004.55 | 1005.74 | 1006.93 | 1008.09
308.15 K | 996.63 | 997.9 | 999.16 | 1000.41 | 1001.63 | 1002.84 | 1004.02 | 1005.2 | 1006.34
313.15 K | 994.92 | 996.25 | 997.55 | 998.83 | 1000.05 | 1001.27 | 1002.46 | 1003.61 | 1004.75

NCC(=O)O [2-aminoacetic acid] + O
mass density [kg/m3]
Details | m1 = 0.1001 | m1 = 0.1498 | m1 = 0.1998 | m1 = 0.2497 | m1 = 0.2999 | m1 = 0.3502 | m1 = 0.4005 | m1 = 0.45 | m1 = 0.4993
303.15 K | 998.79 | 1000.34 | 1001.88 | 1003.42 | 1004.95 | 1006.44 | 1007.94 | 1009.44 | 1010.87
308.15 K | 997.12 | – | 1000.16 | 1001.68 | 1003.19 | 1004.66 | 1006.15 | 1007.62 | 1009.05
313.15 K | 995.14 | 996.61 | 998.06 | 999.5 | 1000.94 | 1002.34 | 1003.74 | 1005.12 | 1006.46

C[C@H](N)C(=O)O [(S)-2-aminopropanoic acid] + O
mass density [kg/m3]
Details | m1 = 0.1001 | m1 = 0.1501 | m1 = 0.1998 | m1 = 0.2502 | m1 = 0.3 | m1 = 0.3501 | m1 = 0.3986 | m1 = 0.4493 | m1 = 0.4994
303.15 K | 998.46 | 999.85 | 1001.23 | 1002.6 | 1003.96 | 1005.32 | 1006.62 | 1007.97 | 1009.28
308.15 K | 996.83 | 998.21 | 999.58 | 1000.94 | 1002.29 | 1003.64 | 1004.93 | 1006.27 | 1007.56
313.15 K | 995 | 996.39 | 997.76 | 999.11 | 1000.45 | 1001.77 | 1003.07 | 1004.36 | 1005.62

O=C([O-])c1ccccc1.[Na+] [sodium benzoate] + O
Details | mass density, 303.15 K | mass density, 308.15 K | mass density, 313.15 K | viscosity, 303.15 K | viscosity, 308.15 K | viscosity, 313.15 K
m1 = 0.1011 | 1001.3 kg/m3 and 1001.31 kg/m3 | 999.49 kg/m3 and 999.34 kg/m3 and 999.62 kg/m3 | 997.41 kg/m3 and 997.51 kg/m3 | 0.845 mPa·s and 0.84 mPa·s | 0.757 mPa·s and 0.758 mPa·s | 0.686 mPa·s and 0.691 mPa·s
m1 = 0.3088 | 1012.46 kg/m3 and 1012.49 kg/m3 | 1010.59 kg/m3 and 1010.54 kg/m3 and 1010.6 kg/m3 | 1008.16 kg/m3 and 1008.27 kg/m3 and 1008.53 kg/m3 | 0.92 mPa·s and 0.926 mPa·s and 0.931 mPa·s | 0.821 mPa·s and 0.837 mPa·s | 0.748 mPa·s and 0.753 mPa·s
m1 = 0.5245 | 1023.61 kg/m3 and 1023.59 kg/m3 and 1023.51 kg/m3 | 1021.52 kg/m3 and 1021.61 kg/m3 and 1021.49 kg/m3 | 1019.94 kg/m3 | 1.024 mPa·s and 1.013 mPa·s and 1.019 mPa·s | 0.918 mPa·s and 0.912 mPa·s | 0.806 mPa·s and 0.812 mPa·s and 0.817 mPa·s

Source: the NIST ThermoML archive (doi:10.1021/acs.jced.5b01031)
